Measurements published in paper doi:10.1101/669069v1 (biorxiv, 2019).

Biological target: T1, uMAT (MAT from U. urealiticum) (Ureaplasma urealyticum, UniProt A0ABM9XK24)
T1 sequence (A0ABM9XK24 1-376): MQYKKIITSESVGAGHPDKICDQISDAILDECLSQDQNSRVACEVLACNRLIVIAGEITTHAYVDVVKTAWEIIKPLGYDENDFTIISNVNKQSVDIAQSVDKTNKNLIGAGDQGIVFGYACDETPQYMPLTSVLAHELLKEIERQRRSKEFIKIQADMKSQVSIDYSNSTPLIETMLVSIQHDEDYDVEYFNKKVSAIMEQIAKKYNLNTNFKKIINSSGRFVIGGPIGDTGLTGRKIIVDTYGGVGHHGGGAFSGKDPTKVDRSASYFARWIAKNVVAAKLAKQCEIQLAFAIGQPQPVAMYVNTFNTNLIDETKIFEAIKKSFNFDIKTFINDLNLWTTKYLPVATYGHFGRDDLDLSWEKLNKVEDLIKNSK
Assay: thermal shift, SYPRO-orange
Format: binding
Conditions: read-out: dTm (first transition) at 1 mM

ΔTm at 1000 µM [°C] | SMILES
~2 | Nc1ncnc2c1ncn2[C@@H]1O[C@H](COP(=O)(O)OP(=O)(O)NP(=O)(O)O)[C@@H](O)[C@H]1O [AMPPNP]
> 10 | C[S+](CC[C@H](N)C(=O)O)C[C@H]1O[C@@H](n2cnc3c(N)ncnc32)[C@H](O)[C@@H]1O (some centres unmarked) [SAM, S-adenosylmethionine]
